Values joined by “and” are separate entries in the source; they are usually repeats but may differ in a detail not shown here. Equal values may be shown once. Read-outs that look alike come from different tables or passages of the source.
Tests used:
Assay type in all cases: cell-based
human (h) PAR2 = molecular target: T1, human (h) PAR2 (Homo sapiens, UniProt P55085); assay: IP1 accumulation assay in KNRK-hPAR2 cells
T1 construct: expressed in transfected cells; host or cells: KNRK cells (KNRK-hPAR2)
T1 sequence (P55085 26-397): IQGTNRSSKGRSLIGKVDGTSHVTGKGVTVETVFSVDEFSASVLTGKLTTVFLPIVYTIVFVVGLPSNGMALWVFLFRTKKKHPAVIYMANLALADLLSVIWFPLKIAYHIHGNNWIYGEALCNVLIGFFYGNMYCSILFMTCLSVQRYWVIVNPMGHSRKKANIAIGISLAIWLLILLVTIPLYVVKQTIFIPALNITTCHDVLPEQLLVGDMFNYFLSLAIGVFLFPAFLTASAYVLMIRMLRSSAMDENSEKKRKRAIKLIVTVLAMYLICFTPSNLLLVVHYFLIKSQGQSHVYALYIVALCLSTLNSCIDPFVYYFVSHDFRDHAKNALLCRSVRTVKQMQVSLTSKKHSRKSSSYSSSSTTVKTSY

PAR2 [1] = molecular target: T2, PAR2 (Homo sapiens, UniProt P55085); assay: IP1 accumulation assay in HEK293 cells (endogenous PAR2); conditions: trypsin (30 nM)
T2 construct: HT-29 cells and HEK293 cells, which express endogenous PAR2; endogenous in cells; host or cells: HT-29
T2 sequence (P55085 26-397): T1 sequence (P55085 26-397)
Experimental: Inhibition of PAR2 signaling with known PAR2 inhibitor I-343 (FIG. 14A) was investigated in HT-29 cells and HEK293 cells, which express endogenous PAR2, and in KNRK cells expressing human (h) PAR2. Accumulation of inositol phosphate-1 (IP1) was measured in response to the PAR2-selective agonist 2-Furoyl-LIGRLO-NH2 (2F), an analogue of the trypsin-exposed tethered ligand, or trypsin.
KNRK-hPAR2, KNRK, HEK293, or HT-29 cells were seeded at a density of 50×10^3 cells/well onto clear 96-well plates (PerkinElmer). After 24 h of culture, medium was replaced with IP1 stimulation buffer (10 mM HEPES, 1 mM CaCl2, 0.5 mM MgCl2, 4.2 mM KCl, 146 mM NaCl, 5.5 mM glucose, 50 mM LiCl; 37° C., 5% CO2.). Cells were pre-incubated with the antagonist or vehicle for 30 min prior to the addition of agonist. Cells were then further incubated for 40 min. Stimulation buffer was […]

PAR2 [2] = molecular target: T2, PAR2; assay: IP1 accumulation assay in HT-29 cells (endogenous PAR2); conditions: 2F (300 nM)-induced IP1, HT-29 cells; read-out: HT-29 300 nM 2F pIC50 ± SEM (converted)
Summary of the method: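 KNRK-hPAR2 or HT-29 cells (50×10³/well, 24 h) in LiCl-containing stimulation buffer, pre-incubated with antagonist 30 min at 37 °C, then stimulated 40 min with 2F at 100 or 300 nM (EC80) or 10 μM ATP. IP1 in lysate quantified by HTRF; IC50 from concentration-response.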

KNRK cells = assay: ATP-stimulated IP1 accumulation in KNRK cells; conditions: ATP (10 μM)
Experimental: KNRK-hPAR2, KNRK or HT-29 cells were seeded at a density of 50×10^3 cells/well in a clear poly-d-lysine coated 96 well tissue culture plate. Following 24 h incubation at 37° C. and 5% CO2, media was removed and replaced with 80 μl IP1 stimulation buffer (10 mM HEPES, 1 mM CaCl2, 0.5 mM MgCl2, 4.2 mM KCl, 146 mM NaCl, 5.5 mM glucose, 50 mM LiCl). Following stimulation buffer addition, the wells received 10 μl of 10× antagonists or DMSO vehicle. All plates were further incubated at 37° C., 5% CO2 for 30 min. 10 μl of 2F or ATP was added to the plates and further incubated for 40 min. Following incubation, stimulation buffer was quickly removed by aspiration and replaced with 25 μl lysis buffer (IP-One HTRF® assay kit, Cisbio). Following incubation of the lysates at 37° C., 5% CO2 for 10′, 10 μl lysate was transferred to a 384-well OptiPlate (PerkinElmer) and detected using the IP-One HTRF® assay kit (Cisbio).
Compounds of the invention (added at 10×concentrations in a 10 μL volume) were incubated for 30 min prior to the addition of 10 μM ATP or 100 nM or 300 nM PAR2 agonist (2F; EC80, added at 10×concentrations in a 10 μL volume) and then further incubated for 40 min. After lysis, the inositol phosphate 1 was quantified with IP-One HTRF® assay kit, Cisbio. The data was analysed with Prism, GraphPad to calculate the IC50 values, shown below in Table 1. […]

[3] = test system: βARR1-RLuc8 or Gαq-RLuc8 and Rab5a-Venus; assay: BRET of βARR1 and Gαq translocation to early endosomes in HEK293 cells; conditions: trypsin 100 nM
Experimental: To determine whether trypsin induces translocation of βARR and Gαq to endosomes, we measured BRET between βARR1-RLuc8 or Gαq—RLuc8 and Rab5a-Venus in HEK293 cells. […] Immunofluorescence and structured illumination microscopy were used to localize PAR2-HA, Gαq and early endosomal antigen-1 (EEA1) in HEK-293 cells. In unstimulated cells, PAR2 was confined to the plasma membrane, although Gαq was detected in early endosomes (FIG. 18C). Trypsin (10 nM, 30 min) induced translocation of PAR2 to early endosomes containing Gαq. The results support the hypothesis that trypsin causes assembly of a PAR2/βARR/Gαq signalosome in early endosomes.
HEK293 cells were transiently transfected in 10 cm dishes (˜50% confluency) with: PAR2-RLuc8 (1 μg) and either RIT-Venus or Rab5a-Venus (both 4 μg); Flag-PAR2-HA (1 μg) and βARR1-RLuc8 (1 μg) plus Rab5a-Venus (4 μg); or Flag-PAR2-HA (1 μg) and Gαq-RLuc8 (0.5 μg), Gb (1 μg), Gg (1 μg) and Rab5a-Venus (4 μg). […] RLuc8 and YFP intensities were measured at 475±30 nm and 535±30 nm, respectively, using a LUMIstar Omega Microplate Reader (BMG LabTech) before and after challenge with proteases, biopsy supernatants or vehicle. Data are presented as a BRET ratio, calculated as the ratio of YFP to RLuc8 signals, and normalized to the baseline average, followed by vehicle subtraction. Treatment effects were determined by comparison of area under the curve values.

Compound | IC50 (human (h) PAR2; 2F (100 nM)-induced IP1, KNRK-hPAR2 cells, read-out: KNRK-PAR2 100 nM 2F (IC50)) [nM] | IC50 (human (h) PAR2; trypsin (30 nM), read-out: IC50, trypsin-induced IP1 in KNRK-hPAR2 cells) [nM] | IC50 (human (h) PAR2; trypsin (30 nM), read-out: pIC50, trypsin-induced IP1 in KNRK-hPAR2 cells (converted)) [nM] | IC50 (PAR2 [1]; read-out: IC50, trypsin-induced IP1 in HEK293 cells) [nM] | IC50 (PAR2 [1]; read-out: pIC50, trypsin-induced IP1 in HEK293 cells (converted)) [nM] | IC50 (PAR2 [2]) | ATP-stimulated IP1 (KNRK cells) | βARR1-RLuc8/Rab5a-Venus BRET and Gαq-RLuc8/Rab5a-Venus BRET [3]
Cc1nc(C(=O)N2CCN(C(=O)c3cn4nc(-c5ccc(F)cc5)cc(C(C)(C)C)c4n3)C(C)(C)C2)n[nH]1 [Compound I-343, (8-(tert-butyl)-6-(4-fluorophenyl)imidazo[1,2-b]pyridazin-2-yl)(2,2-dimethyl-4-(5-methyl-1H-1,2,4-triazole-3-carbonyl)piperazin-1-yl)methanone] | 666 | 7510 | 7410 | 0.4 | 0.437 | 1.17 nM and 1.1 nM | did not affect | 
trypsin |  |  |  |  |  |  |  | stimulated an increase

Reference: patent US20200383985A1, “Inhibitors of Protease Activated Receptor-2” (Endosome Therapeutics, Inc., priority 2017, published 2020)
